This is an account of results in patent US20250145619A1, “KHK INHIBITOR, PREPARATION METHOD THEREFOR AND USE THEREOF” (YOUNGENE THERAPEUTICS CO., LTD, priority 2022, published 2025).

Where only a bound is given, the exact number is not on record here.

The experiment concerns the target KHK—C (Homo sapiens (Human), UniProt P50053). The experiment can be described thus: KHK—C ADP-Glo kinase inhibitory activity assay. The format is biochemical. The conditions noted are these: 1 nM KHK—C, 200 μM D-Fructose, 100 μM ATP, ADP-Glo luminescence. From the text: (KHK—C ADP-Glo Kinase Inhibitory Activity Assay)
Y=Bottom+(Top−Bottom)/(1+10^((LogIC50−X)×HillSlope)) • X: Log value of compound concentration • Y: Inhibition ratio (%)
[formula] • Negative control: DMSO
Background: ADP-Glo first removes unused ATP, then detects ADP through luciferase.

Sequence of KHK—C (P50053 whole entry): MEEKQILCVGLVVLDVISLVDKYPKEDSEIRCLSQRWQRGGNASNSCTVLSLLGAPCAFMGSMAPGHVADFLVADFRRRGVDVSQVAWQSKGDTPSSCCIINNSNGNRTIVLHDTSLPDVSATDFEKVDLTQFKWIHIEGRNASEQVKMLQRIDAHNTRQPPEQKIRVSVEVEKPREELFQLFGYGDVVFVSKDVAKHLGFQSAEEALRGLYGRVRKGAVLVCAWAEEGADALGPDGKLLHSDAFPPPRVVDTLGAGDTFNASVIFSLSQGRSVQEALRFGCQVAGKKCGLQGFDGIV

Usually IC50 stands for the concentration at which inhibition is half-maximal. A high value points to a need for much substance. Regarding `C[C@H]1CCN1c1nc(N2CC3(CC(C(=O)O)C3)C2)cc(C(F)(F)F)c1C#N` [Example 1, (S)-2-(5-cyano-6-(2-methylazetidine-1-yl)-4-(trifluoromethyl)pyridin-2-yl)-2-azaspiro[3.3]heptan-6-carboxylic acid], inhibition was half-maximal at 27.9 nM (IC50).

In turn, `C[C@H]1CCN1c1nc(N2CC3(CCC(C(=O)O)CC3)C2)cc(C(F)(F)F)c1C#N` [Example 2, (S)-2-(5-cyano-6-(2-methylazetidine-1-yl)-4-(trifluoromethyl)pyridin-2-yl)-2-azaspiro[3.5]nonan-7-carboxylic acid] returned an IC50 of 143 nM.

In the case of `C[C@H]1CCN1c1nc(N2CCC3(CC2)CC(C(=O)O)C3)cc(C(F)(F)F)c1C#N` [Example 3, (S)-7-(5-cyano-6-(2-methylazetidine-1-yl)-4-(trifluoromethyl)pyridin-2-yl)-7-azaspiro[3.5]nonan-2-carboxylic acid], half-maximal inhibition (IC50) was put at 115 nM.

`C[C@H]1CCN1c1nc(N2CC3(C2)CS(=O)(=O)C3)cc(C(F)(F)F)c1C#N` [Example 4, (S)-6-(2,2-dioxa-2-thioxa-6-azaspiro[3.3]heptan-6-yl)-2-(2-methylazetidine-1-yl)-4-(trifluoromethyl)nicotinonitrile] returned an IC50 of 198 nM.

For the molecule `C[C@H]1[C@H](O)CN1c1nc(N2CC3(CC(C(=O)O)C3)C2)cc(C(F)(F)F)c1C#N` [Example 5, 2-(5-cyano-6-((2S,3R)-3-hydroxy-2-methylazetidine-1-yl)-4-(trifluoromethyl)pyridin-2-yl)-2-azaspiro[3.3]heptan-6-carboxylic acid], the half-inhibitory concentration (IC50) was found to be 110 nM.

As for `C[C@H]1CCN1c1nc(N2CC3(CCC(C(=O)O)C3)C2)cc(C(F)(F)F)c1C#N` (stereo partly drawn) [Example 7, 2-(5-cyano-6-((S)-2-methylazetidine-1-yl)-4-(trifluoromethyl)pyridin-2-yl)-2-azaspiro[3.4]octan-6-carboxylic acid], inhibition was half-maximal at 36 nM (IC50).

In turn, `C[C@H]1CCN1c1nc(N2C[C@@H]3[C@@H](CC(=O)O)[C@@H]3C2)cc(C(F)(F)F)c1C#N` [Example 8, 2-((1R,5S,6R)-3-(5-cyano-6-((S)-2-methylazetidine-1-yl)-4-(trifluoromethyl)pyridin-2-yl)-3-azabicyclo[3.1.0]hexan-6-yl)acetic acid] came in with a concentration for half-maximal inhibition (IC50) of 0.17 nM.

On to `C[C@H]1CCN1c1nc(N2CC3(CC(CC(=O)O)C3)C2)cc(C(F)(F)F)c1C#N` [Example 9, (S)-2-(2-(5-cyano-6-(2-methylazetidine-1-yl)-4-(trifluoromethyl)pyridin-2-yl)-2-azaspiro[3.3]heptan-6-yl)acetic acid], for which it took 27 nM to reach half-maximal inhibition (IC50).

In turn, `CC(C(=O)O)[C@H]1[C@@H]2CN(c3cc(C(F)(F)F)c(C#N)c(N4CC[C@@H]4C)n3)C[C@@H]21` (stereo partly drawn) [Example 10, (R)-2-((1R,5S,6R)-3-(5-cyano-6-((S)-2-methylazetidine-1-yl)-4-(trifluoromethyl)pyridin-2-yl)-3-azabicyclo[3.1.0]hexan-6-yl)propionic acid] yielded an IC50 of 12.6 nM.

`C[C@H]1CCN1c1nc(N2CCC(CCC(=O)O)C2)cc(C(F)(F)F)c1C#N` (stereo partly drawn) [Example 11, 3-(1-(5-cyano-6-((S)-2-methylazetidine-1-yl)-4-(trifluoromethyl)pyridin-2-yl)pyrrolidin-3-yl)propionic acid] gave an IC50 of 12.6 nM.

Take `C[C@H]1CCN1c1nc(N2CC3(CN(CC(=O)O)C3)C2)cc(C(F)(F)F)c1C#N` [Example 15, (S)-2-(6-(5-cyano-6-(2-methylazetidine-1-yl)-4-(trifluoromethyl)pyridin-2-yl)-2,6-diazaspiro[3.3]heptan-2-yl)acetic acid]: half-maximal inhibition (IC50) was put at 212 nM. Compared with the last molecule, the IC50 is about 17-fold higher.

`C[C@H]1CCN1c1nc(N2CCC3(CC(C(=O)O)C3)C2)cc(C(F)(F)F)c1C(N)=O` (stereo partly drawn) [Example 16, (S)-6-(5-aminoformyl-6-(2-methylazetidine-1-yl)-4-(trifluoromethyl)pyridin-2-yl)-6-azaspiro[3.4]octan-2-carboxylic acid]: half-maximal inhibition (IC50) was put at 6300 nM.

Consider `C[C@H]1CCN1c1nc(N2CC3(C2)CS(=O)(=O)C3)cc(C(F)(F)F)c1C(N)=O` [Example 17, (S)-6-(2,2-dioxa-2-thioxa-6-azaspiro[3.3]heptan-6-yl)-2-(2-methylazetidine-1-yl)-4-(trifluoromethyl)nicotinamide], for which the IC50 is more than 10000 nM.

On to `C[C@@H](C(=O)O)[C@H]1[C@@H]2CN(c3cc(C(F)(F)F)c(C#N)c(N4CC[C@@H]4C)n3)C[C@@H]21` [Example 18, (R)-2-((1R,5S,6R)-3-(5-cyano-6-((S)-2-methylazetidine-1-yl)-4-(trifluoromethyl)pyridin-2-yl)-3-azabicyclo[3.1.0]hexan-6-yl)propionic acid], for which the IC50 came out at 100 nM.

As to `C[C@H](C(=O)O)[C@H]1[C@@H]2CN(c3cc(C(F)(F)F)c(C#N)c(N4CC[C@@H]4C)n3)C[C@@H]21` [Example 19, (S)-2-((1R,5S,6R)-3-(5-cyano-6-((S)-2-methylazetidine-1-yl)-4-(trifluoromethyl)pyridin-2-yl)-3-azabicyclo[3.1.0]hexan-6-yl)propionic acid], the IC50 is 24.7 nM.

In turn, `C[C@H]1CCN1c1nc(N2CC[C@H](CCC(=O)O)C2)cc(C(F)(F)F)c1C#N` [Example 20, 3-((S)-1-(5-cyano-6-((S)-2-methylazetidine-1-yl)-4-(trifluoromethyl)pyridin-2-yl)pyrrolidin-3-yl)propionic acid] returned an IC50 of 15.4 nM.

`C[C@H]1CCN1c1nc(N2CC[C@@H](CCC(=O)O)C2)cc(C(F)(F)F)c1C#N` [Example 21, 3-((R)-1-(5-cyano-6-((S)-2-methylazetidine-1-yl)-4-(trifluoromethyl)pyridin-2-yl)pyrrolidin-3-yl)propionic acid] had an IC50 of 81.2 nM.

Molecule `C[C@H]1CCN1c1nc(N2CC3(CC(C(=O)O)C3)C2)c2c(n1)C(F)(F)CC2` [Example 24, (S)-2-(7,7-difluoro-2-(2-methylazetidine-1-yl)-6,7-dihydro-5H-cyclopentadiene[d]pyrimidin-4-yl)-2-azaspiro[3.3]heptan-6-carboxylic acid] had an IC50 of 78.3 nM.

In the case of `C[C@H]1CCN1c1nc(N2CC(CC(=O)O)C2)c2c(n1)C(F)(F)CC2` [Example 25, (S)-2-(1-(7,7-difluoro-2-(2-methylazetidine-1-yl)-6,7-dihydro-5H-cyclopentadiene[d]pyrimidin-4-yl)azetidine-3-yl)acetic acid], the IC50 worked out at 47 nM. This IC50 lies about 1.7-fold lower than the previous one.

Regarding `C[C@H]1CCN1c1nc(N2CCC3(CC(C(=O)O)C3)C2)c2c(n1)C(F)(F)CC2` (stereo partly drawn) [Example 26, (S)-6-(7,7-difluoro-2-(2-methylazetidine-1-yl)-6,7-dihydro-5H-cyclopentadiene[d]pyrimidin-4-yl)-6-azaspiro[3.4]octan-2-carboxylic acid], the half-maximal inhibitory concentration (IC50) is 42.9 nM.

Turning to `C[C@H]1CCN1c1nc(N2CC3(CCC(C(=O)O)C3)C2)c2c(n1)C(F)(F)CC2` (stereo partly drawn) [Example 27, 2-(7,7-difluoro-2-((S)-2-methylazetidine-1-yl)-6,7-dihydro-5H-cyclopentadiene[d]pyrimidin-4-yl)-2-azaspiro[3.4]octan-6-carboxylic acid], half-maximal inhibition (IC50) was put at 59 nM.

Consider `CC(=O)N[C@@H]1CN(c2nc(N3CC4(CC(C(=O)O)C4)C3)c3c(n2)C(F)(F)CC3)[C@H]1C` [Example 28, 2-(2-((2S,3R)-3-acetamido-2-methylazetidine-1-yl)-7,7-difluoro-6,7-dihydro-5H-cyclopentadiene[d]pyrimidin-4-yl)-2-azaspiro[3.3]heptan-6-carboxylic acid], for which the IC50 was more than 10000 nM.

Regarding `CN[C@@H]1CN(c2nc(N3CC4(CC(C(=O)O)C4)C3)c3c(n2)C(F)(F)CC3)[C@H]1C` [Example 29, 2-(7,7-difluoro-2-((2S,3R)-2-methyl-3-(methylamino)azetidine-1-yl)-6,7-dihydro-5H-cyclopentadiene[d]pyrimidin-4-yl)-2-azaspiro[3.3]heptan-6-carboxylic acid], the IC50 is more than 10000 nM.

Take `CO[C@@H]1CN(c2nc(N3CC4(CC(C(=O)O)C4)C3)c3c(n2)C(F)(F)CC3)[C@H]1C` [Example 30, 2-(7,7-difluoro-2-((2S,3R)-3-methoxy-2-methylazetidine-1-yl)-6,7-dihydro-5H-cyclopentadiene[d]pyrimidin-4-yl)-2-azaspiro[3.3]heptan-6-carboxylic acid]: the 50% inhibitory concentration (IC50) was more than 10000 nM.

Turning to `C[C@H]1[C@H](O)CN1c1nc(N2CC3(CC(C(=O)O)C3)C2)c2c(n1)C(F)(F)CC2` [Example 31, 2-(7,7-difluoro-2-((2S,3R)-3-hydroxy-2-methylazetidine-1-yl)-6,7-dihydro-5H-cyclopentadiene[d]pyrimidin-4-yl)-2-azaspiro[3.3]heptan-6-carboxylic acid], the IC50 is 134 nM.

`C[C@H]1CCN1c1nc(N2CCC(CC(=O)O)C2)c2c(n1)C(F)(F)CC2` (stereo partly drawn) [Example 32, 2-(1-(7,7-difluoro-2-((S)-2-methylazetidine-1-yl)-6,7-dihydro-5H-cyclopentadiene[d]pyrimidin-4-yl)pyrrolidin-3-yl)acetic acid] came in with an IC50 of 10.4 nM.

Molecule `C[C@H]1CCN1c1nc(N2CCC(CC(=O)O)CC2)c2c(n1)C(F)(F)CC2` [Example 33, (S)-2-(1-(7,7-difluoro-2-(2-methylazetidine-1-yl)-6,7-dihydro-5H-cyclopentadiene[d]pyrimidin-4-yl)piperidin-4-yl)acetic acid] registered an IC50 of 52.8 nM.

For `C[C@H]1CCN1c1nc(N2CC3(CC(CC(=O)O)C3)C2)c2c(n1)C(F)(F)CC2` [Example 34, (S)-2-(2-(7,7-difluoro-2-(2-methylazetidine-1-yl)-6,7-dihydro-5H-cyclopentadiene[d]pyrimidin-4-yl)-2-azaspiro[3.3]heptan-6-yl)acetic acid], the IC50 is 40 nM.

`C[C@H]1CCN1c1nc(N2CC3CN(CC(=O)O)CC3C2)c2c(n1)C(F)(F)CC2` (stereo partly drawn) [Example 35, 2-(5-(7,7-difluoro-2-((S)-2-methylazetidine-1-yl)-6,7-dihydro-5H-cyclopentadiene[c]pyrimidin-4-yl)hexahydropyrrolo[3,4-c]pyrrolo-2(1H)-yl)acetic acid] yielded a half-maximal inhibitory concentration (IC50) of 142 nM.
